The term melting point denotes the temperature, or range, at which the solid turns liquid.

The values that follow come from patent US7196108B2, “Bicyclic heterocycles for the treatment of diabetes and other diseases” (Incyte San Diego Inc., priority 2002, dated 2007).

Entries after “also recorded” stand apart in the source; their conditions may differ.

Data set [1] deals with KKA^y mice. The data set is described as follows: Oral administration in the treatment of type 2 diabetes in KKA^y mice (serum glucose and triglycerides). Type of data set: in vivo, mouse. Conditions: 15 mg/kg oral gavage once daily in sesame oil, days 7 and/or 14, vs control; for serum glucose level: FIG. 2; for serum triglyceride level: FIG. 3. Here is the method: These models include among others, db/db mice, ob/ob mouse, and KKA^y mice. […] A procedure for such experiments was described in detail in Iwatsuka, et al., 1970 General Survey of Diabetic Features of Yellow KK Mice. Endocrinol. Japon. 17: 23–35, incorporated herein by reference. The testing of the compounds of the invention was conducted as described in Example 22. The animals were treated with a single daily oral dose of 15 mg/kg of the test compound suspended in sesame oil (dose volume of 3–5 ml/kg). At the end of one and two weeks of treatment the animals were bled from the tail vein and their serum glucose and triglycerides and/or cholesterol was measured in duplicate.
Experimental Procedure: Six to eight week-old male KKA^y mice (available from Jackson Labs of Bar Harbour, Me.) were housed in a fixed 12–12-hr artificial light-dark cycle, and maintained on a standard rodent diet provided ad libitum. Animals were allowed two days to acclimate in this experimental environment prior to the initiation of the study. Prior to initiation of treatment, the animals were bled from the tail vein (100–200 μL of whole blood) and serum levels of glucose and triglycerides were measured in duplicate (Trinder kits; Sigma, St.Louis, Mo.). Based on these initial measures, animals were sorted into groups with approximately the same average serum triglyceride levels. Once sorted, the animals were housed one per cage and provided rodent diet ad libitum.
Treatment group A (n=6/group): • 1) KKA^y control (sesame oil) • 2) Compound 1 (15 mg/kg)
Treatment group B (n=6/group): • 1) KKA^y control (sesame oil) • 2) Compound 6 (15 mg/kg)
Treatment group C (n=6/group): • 1) KKA^y control (sesame oil) • 2) Compound 9 (15 mg/kg)
All compounds were suspended in sesame oil, and administered to animals in a volume of 3 ml/kg/dose. All treatments were administered by oral gavage once daily.
To monitor the effect of the tested Compounds, animals were bled at the end of the dark cycle on days 7 and/or 14 of the treatment period. Serum glucose and triglyceride levels were measured in duplicate. The blood was kept at room temperature to allow coagulation, after which the serum was separated and assayed for glucose and triglyceride levels.

The conditions of data set [2]: disclosed in U.S. Pat. No. 6,515,003; cited from earlier work.
The test system of data set [3] is 3T3-L1 pre-adipocytes. The settings on record: disclosed in U.S. Pat. No. 6,515,003; cited from earlier work.

With `CC(C)Cc1cc(-c2cc(/C=C3\SC(=O)NC3=O)ccc2OC(F)(F)F)c2c(c1)C(C)(C)CO2` [Compound 1, 5-[3-(5-Isobutyl-3,3-dimethyl-2,3-dihydro-benzofuran-7-yl)-4-trifluoromethoxy-benzylidene]-thiazolidine-2,4-dione], the melting point was 142 to 146 °C. Also, in data set [1], the serum glucose level entry is reported as “significantly lowered; also recorded: reduction” and the serum triglyceride level entry was “lowered; also recorded: reduction”.

Take `COc1c(F)cc(/C=C2\SC(=O)NC2=O)c(F)c1-c1cc(CC(C)C)cc2c1OCC2(C)C` [Compound 6, 5-[2,5-Difluoro-3-(5-isobutyl-3,3-dimethyl-2,3-dihydro-benzofuran-7-yl)-4-methoxy-benzylidene]-thiazolidine-2,4-dione]: in data set [1], the serum glucose level entry was “significantly lowered; also recorded: reduction” and the serum triglyceride level entry is reported as “lowered; also recorded: reduction”.

`CC1(C)COc2c(-c3cc(/C=C4\SC(=O)NC4=O)ccc3OC(F)(F)F)cc(-c3ccoc3)cc21` [Compound 9, 5-[3-(5-Furan-3-yl-3,3-dimethyl-2,3-dihydro-benzofuran-7-yl)-4-trifluoromethoxy-benzylidene]-thiazolidine-2,4-dione]: in data set [1], the serum glucose level entry is reported as “significantly lowered; also recorded: reduction” and the serum triglyceride level result was “lowered; also recorded: reduction”.

Take `Cc1cc2c(cc1-c1cc(/C=C3\SC(=O)NC3=O)ccc1OC(F)(F)F)C(C)(C)CCC2(C)C` [Compound 20, 5-[3-(3,5,5,8,8-Pentamethyl-5,6,7,8-tetrahydro-naphthalen-2-yl)-4-trifluoromethoxy-benzylidene]-thiazolidine-2,4-dione]: in data set [2], the “activity for the treatment of diabetes” value was “active”. Besides, the adipocyte differentiation activity result in data set [3] is “active”.
